Source: US20250059231A1, “Protease inhibitors” (priority 2021, published 2025)
Where two headings read alike, the source gives them in different places. Where a SMILES comes first, the peptide text is derived from it. [ ]: non-standard residue; d: D form. The star is where a group is joined. Arachidoyl = CCCCCCCCCCCCCCCCCCCC(=O)*; Palmitoyl = CCCCCCCCCCCCCCCC(=O)*; hPhe = N[C@@H](CCc1ccccc1)C(=O)O; Phg = N[C@H](C(=O)O)c1ccccc1; Pip = O=C(O)[C@@H]1CCCCN1

How the values were obtained:
WNV protease [1] = target: T1, WNV protease (West Nile virus, UniProt P06935); assay: WNV protease assay (analogous procedure); assay type: biochemical
T1 construct: a trypsin-like serine protease domain in the N-terminal region of the flaviviral NS3 proteins
T1 sequence (P06935 1424-1463): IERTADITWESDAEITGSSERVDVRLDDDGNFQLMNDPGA
T1 sequence (P06935 1502-1679): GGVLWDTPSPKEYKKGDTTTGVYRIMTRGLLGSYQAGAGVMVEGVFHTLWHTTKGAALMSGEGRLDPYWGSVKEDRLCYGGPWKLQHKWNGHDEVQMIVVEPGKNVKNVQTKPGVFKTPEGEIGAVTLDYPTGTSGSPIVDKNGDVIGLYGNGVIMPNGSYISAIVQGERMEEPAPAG
Experimental: (§1) By catalytic activity of the protease, the cleaved substrate results in increased fluorescence that can be monitored using a BMG Labtech Fluostar OPTIMA Microtiter fluorescence plate reader (excitation wavelength of 320 nm and a monitored emission wavelength of 405 nm). Dilutions were made starting from 10 mM stock solutions in DMSO and final concentrations were measured in triplicates. The inhibitors were preincubated for 15 min with DENV protease (100 nM) in the assay buffer (50 mM Tris-HCl pH 9.0, ethylene glycol (10% v/v), and 0.0016% Brij 58). The enzymatic reaction was initiated by the addition of the FRET substrate (final concentration 50 μM) to obtain a final assay volume of 100 μL per well. The enzymatic activity was monitored for 15 min and determined as a slope of relative fluorescence units per second (RFU/s) for each concentration. The mean of the triplicates were plotted against the corresponding concentration in CDDVault to determine the IC50-values. Analogous procedures were used to determine the inhibitory potency on WNV (Kühl et al., J. Med. Chem. 2020, 63 (15): 8179-8197) and ZIKA protease (Nitsche et al., ACS Med. Chem. Lett. 2019 Feb. 14; 10 (2): 168-174). For selectivity screening of active candidates, similar biochemical assays with human serine proteases trypsin (Weigel et al., J. Med. Chem. 2015, 58 (19), 7719-7733.) and/or thrombin (Nitsche et al., J. Med. Chem. 2013, 56 (21), 8389-8403) were used.

human Thrombin = human Thrombin (Homo sapiens, UniProt P00734); assay: Selectivity screening, human serine protease thrombin; assay type: biochemical; details: read-out: inhibition of human Thrombin
Experimental: as §1

human Trypsin = human Trypsin (Homo sapiens, UniProt P07477); assay: Selectivity screening, human serine protease trypsin; assay type: biochemical; details: read-out: inhibition of human Trypsin
Experimental: as §1

WNV protease [2] = target: T1, WNV protease; assay: WNV protease assay (analogous procedure); assay type: biochemical; details: read-out: IC50 for WNNV
DENV protease = target: T2, DENV protease (Dengue virus type 2, UniProt P29990); assay: biochemical; details: read-out: inhibition of DENV
T2 construct: The virus-encoded dengue protease comprises the amino-terminal 180 amino acids of NS3 (NS3pro) of the polyprotein
T2 sequence (P29990 1398-1437): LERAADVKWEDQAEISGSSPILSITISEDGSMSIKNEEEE
T2 sequence (P29990 1476-1653): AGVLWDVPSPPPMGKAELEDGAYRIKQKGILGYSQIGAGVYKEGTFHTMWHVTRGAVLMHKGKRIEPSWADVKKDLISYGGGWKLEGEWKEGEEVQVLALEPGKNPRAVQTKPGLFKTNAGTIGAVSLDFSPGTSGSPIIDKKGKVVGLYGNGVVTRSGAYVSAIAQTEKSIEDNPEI
Method in brief: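 DENV protease (100 nM) was pre-incubated 15 min with inhibitors in 50 mM Tris-HCl pH 9.0, 10% ethylene glycol, 0.0016% Brij 58. FRET substrate (50 μM final) started the reaction, monitored 15 min as RFU/s slope. IC50 came from triplicate means versus concentration.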

ZIKA protease = target: T3, ZIKA protease (Zika virus, UniProt Q32ZE1); assay: biochemical
T3 construct: a trypsin-like serine protease domain in the N-terminal region of the flaviviral NS3 proteins
T3 sequence (Q32ZE1 1499-1676): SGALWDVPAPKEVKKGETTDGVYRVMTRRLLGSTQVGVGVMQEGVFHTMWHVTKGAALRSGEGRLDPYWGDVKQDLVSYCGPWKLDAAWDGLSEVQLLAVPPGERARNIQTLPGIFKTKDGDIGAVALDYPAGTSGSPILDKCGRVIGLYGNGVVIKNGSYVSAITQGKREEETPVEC
T3 sequence (Q32ZE1 1421-1460): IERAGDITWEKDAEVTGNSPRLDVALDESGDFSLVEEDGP
Experimental: as §1

Structure (SMILES) | inhibition at 50 µM (WNV protease [1]) [%] | inhibition at 5 µM (human Thrombin; at 5 μM) [%] | inhibition at 5 µM (human Trypsin; at 5 μM) [%] | inhibition at 25 µM (human Trypsin; at 25 μM) [%] | IC50 (WNV protease [2]) [µM] | inhibition at 50 µM (DENV protease) [%] | IC50 (ZIKA protease) [µM] | inhibition at 1 µM (ZIKA protease; at 1 μM, read-out: inhibition of ZIKV) [%] | inhibition at 50 µM (ZIKA protease; read-out: inhibition of ZIKV) [%] | inhibition at 1 µM (DENV protease) [%] | inhibition at 1 µM (WNV protease [1]; at 1 μM, read-out: inhibition of WNNV) [%] | inhibition at 5 µM (human Thrombin) [%] | inhibition at 5 µM (human Trypsin) [%] | inhibition at 25 µM (human Trypsin) [%]
CCCCCCCCCCCCCCCC(=O)N[C@@H](CCCCN)C(=O)N[C@@H](C)C(=O)N[C@@H](C)C(=O)N[C@@H](Cc1ccccc1)C(N)=O [compound 17] (Palmitoyl-KAAF-NH2) | ≥ 25 | < 5 | < 10 | < 20 | ≤ 40 | ≥ 25 |  |  |  |  |  |  |  | 
CCCCCCCCCCCCCCCC(=O)N[C@@H](CCCCN)C(=O)N[C@@H](C)C(=O)N[C@@H](Cc1cnc[nH]1)C(N)=O [compound 167] (Palmitoyl-Lys-Ala-His-NH2) | ≥ 25 | < 5 |  |  | ≤ 40 |  | ≤ 25 | ≥ 10 | ≥ 65 | ≥ 20 |  |  |  | 
CCCCCCCCCCCCCCCCCCCC(=O)N[C@@H](CCCCN)C(=O)N[C@@H](C)C(=O)N[C@@H](C)C(=O)N[C@H](CCCCN)C(N)=O [compound 132] (Arachidoyl-KAA[dK]-NH2) | ≥ 25 | < 5 |  | < 20 | ≤ 40 | ≥ 25 |  |  |  | ≥ 20 | ≥ 10 |  |  | 
CCCCCCCCCCCCCCCC(=O)N[C@@H](CCCCN)C(=O)N1CCCC[C@H]1C(=O)N[C@H](C(=O)N[C@@H](CCCCN)C(N)=O)c1ccccc1 [compound 16] (Palmitoyl-K[Pip][Phg]K-NH2) | ≥ 25 | < 5 | < 10 | < 20 | ≤ 40 | ≥ 25 |  |  |  |  |  |  |  | 
CCCCCCCCCCCCCCCC(=O)N[C@@H](CCCCN)C(=O)N[C@@H](C)C(=O)N[C@@H](C)C(=O)N[C@@H](CCc1ccccc1)C(N)=O [compound 90] (Palmitoyl-KAA[hPhe]-NH2) | ≥ 25 | < 5 | < 10 | < 20 | ≤ 40 | ≥ 25 |  |  |  |  |  |  |  | 
CCCCCCCCCCCCCCCC(=O)N[C@@H](CCCCN)C(=O)N[C@@H](C)C(=O)N[C@@H](CCCCN)C(=O)c1ccccc1 [compound 174] | ≥ 25 |  |  |  | ≤ 40 | ≥ 25 |  |  |  |  |  | < 5 | < 10 | < 20
CCCCCCCCCCCCCCCC(=O)N[C@@H](CCCCN)C(=O)N1CCC[C@H]1C(=O)N[C@H](C(=O)N[C@@H](CCCCN)C(N)=O)c1ccccc1 [compound 13] (Palmitoyl-KP[Phg]K-NH2) | ≥ 25 | < 5 | < 10 | < 20 | ≤ 40 | ≥ 25 |  |  |  |  |  |  |  | 
CCCCCCCCCCCCCCCC(=O)N[C@H](CCCCN)C(=O)N[C@@H](C)C(=O)N[C@@H](Cc1ccccc1)C(N)=O [compound 190] (Palmitoyl-[dK]-Ala-Phe-NH2) | ≥ 25 | < 5 | < 10 | < 20 | ≤ 40 | ≥ 25 |  |  |  |  |  |  |  | 
CCCCCCCCCCCCCCCC(=O)N[C@@H](CCCCN)C(=O)N[C@@H](C)C(=O)N[C@@H](CCCCN)C(=O)C(N)=O [compound 176] | ≥ 25 | < 5 |  |  | ≤ 40 | ≥ 25 | ≤ 25 |  | ≥ 65 |  |  |  |  | 
CCCCCCCCCCCCCCCC(=O)N[C@@H](CCCCN)C(=O)N[C@@H](C)C(=O)N[C@@H](C)C(=O)N[C@@H](C=O)CCCCN [compound 181] (Palmitoyl-KAA[dK]-aldehyde) | ≥ 25 | < 5 |  | < 20 | ≤ 40 | ≥ 25 |  |  |  |  |  |  |  | 
